In USRE38825E1, “Glyphosate tolerant plants” (Monsanto Technology LLC, priority 1990, dated 2005):
Read-outs that look alike come from different tables or passages of the source.

Key:
most plant species [1] = settings: Franz, 1985; cited from earlier work
most plant species [2] = settings: in vivo; cited from earlier work
[3] = system: glyphosate oxidoreductase; assay: Glyphosate oxidoreductase activity in isolated chloroplasts from transgenic tobacco; assay type: biochemical, Nicotiana tabacum; settings: substrate 50 mM; 30 minute assays; without ubiquinone; chloroplasts of plants #22844, 22854, 22886, 22887
[4] = target: LBAA glyphosate oxidoreductase variant ARG 334 (His334 to Arg) (Ochrobactrum sp. G-1, UniProt D2KI28, H334R/S2A); assay: Kinetic analysis of glyphosate oxidoreductase variant ARG 334 (site-directed mutagenesis); assay type: biochemical, bacterial isolate LBAA (Pseudomonas strain LBAA)
[5] = target: LBAA glyphosate oxidoreductase variant v.247 (v1v2v3: GLY84, ARG153, ARG334), SEQ ID NO:18 (Ochrobactrum sp. G-1, UniProt D2KI28, H334R/K153R/S2A/S84G); assay: Kinetic analysis of glyphosate oxidoreductase variant v.247; assay type: biochemical, bacterial isolate LBAA (Pseudomonas strain LBAA); settings: v.247
Protocol: The mutagenesis procedure used was that of Mn++-poisoned PCR and the template was a linearized glyphosate oxidoreductase gene plasmid containing the synthetic glyphosate oxidoreductase gene (SEQ ID NO:8). The oligonucleotide primers used were homologous to regions in the vector and flanking the glyphosate oxidoreductase gene. The PCR conditions employed were as follows: 1 minute at 94° C., 2 minutes at 55° C., and 3 minutes at 72° C. and with 35 cycles. A 5:1 ratio of dCTP+dGTP+TTP to dATP was used. The reactions contained MnCl2 at 125, 250, 375, or 500 μM. After the reaction, the amplified product was recloned into a vector containing a weak E. coli promoter. This vector was a pBR327 derivative containing the araBAD promoter and suitable cloning sites. One hundred colonies from this cloning step were then screened in E. coli GB993 for improved glyphosate tolerance and utilization phenotypes in media composed of MOPS minimal medium with glyphosate and Pi or with glyphosate alone, respectively. Growth rates were determined by measuring A550 over a 96 hour period. […] The glyphosate oxidoreductase gene was recloned into the expression vector portion and this phenotype verified. All kinetic analysis was performed on crude E. coli lysates. Putative glyphosate oxidoreductase variant proteins were overexpressed after subcloning the NcoI/HindIII variant glyphosate oxidoreductase gene into PrecA-gene10L expression vector. For overexpression in PrecA-gene10L constructs, GB993 cells containing the vector were induced at a Klett=110-120 in M9 minimal medium with 50 μg/ml nalidixic acid and allowed to grow for 2.5 hours at 37° C. with vigorous shaking. Cells were harvested by centrifugation at 4000 g, 5 minutes at 4° C., and resuspend in 100 mM Tris-HCl, pH 7.1, 1 mM EDTA, 35 mM KCl, 20% glycerol, and 1 mM benzamidine at 3 ml/g cell pellet. Lysates were prepared by breaking the cells in a French press, twice, at 1000 psi. Insoluble debris was removed by centrifugation at 12000 g, 15 minutes at 4° C., and the supernatant was de-salted by passing over a PD-10 column (Sephadex G-25, Pharmacia). The void volume fraction was used as the source of enzyme for kinetic analysis. Protein concentrations were determined using the Bio-Rad protein dye-binding assay. Time and enzyme concentration courses were performed to determine linear ranges. […] Ten minutes was determined to be the optimal time for the enzyme assay using 10 μg lysate. After 10 minutes at 30° C. with shaking, 0.25 ml dinitrophenylhydrazine (DNPH) reagent (0.5 mg/ml in 0.5M HCl) was added and the reaction was allowed to proceed for an additional 5 minutes at 30° C. with shaking. A 1.5M NaOH solution (400 μl) was then added to the assay mix, and the reaction was continued for 5 minutes at 30° C. with shaking. Enzyme activity was determined from the amount of glyoxylate-DNPH adduct formed by measuring A520 against a standard of glyoxylate. Enzyme assays are performed in duplicate on at least two different single colony isolates of a putative glyphosate oxidoreductase variant. To determine Km and Vmax, enzyme assays were performed over a (0.2-2.0)×Km range of glyphosate concentrations. The Km and Vmax were determined from Lineweaver Burk, Eadie-Hofstee and hyperbolic kinetic plots. Vmax was estimated after determining the amount of immunoreactive glyphosate oxidoreductase protein in lysates by immunoblot analysis as described below. Immunoblot analysis was performed following SDS-PAGE and transfer of protein from the gel to nitrocellulose at 500 mA in a Hoeffer transfer apparatus in 25 mM Tris-HCl, 192 mM glycine containing 0.1% SDS and 25% methanol for 1-2 hours. After transfer, the nitrocellulose was incubated with 50 mM Tris-HCl, pH7.5, 0.9% NaCl, 0.01% Tween 20, 0.02% NaN3 containing 2% bovine serum albumin at room temperature with shaking for at least 30 minutes. […]

[6] = system: glyphosate oxido-reductase from LBAA; assay: Glyphosate oxidoreductase reaction with substrates; assay type: biochemical; settings: oxidation to glycine and glyoxylate
Text: The enzyme glyphosate oxidoreductase catalyzes the cleavage of the C-N bond of glyphosate yielding aminomethyl phosphonate (AMPA) and glyoxylate as the reaction products. Under aerobic conditions, oxygen is utilized as a cosubstrate for the reaction. Other electron carriers such as phenazine methosulfate and ubiquinone stimulate the reaction under aerobic conditions. In the absence of oxygen, these compounds act as electron acceptors.
The enzymatic reaction can be assayed by oxygen uptake using an oxygen electrode. […] This enzyme has a stoichiometry of two moles of glyphosate oxidized per mole of oxygen consumed and produces two moles each of AMPA and glyoxylate as reaction products.
In addition to glyphosate, glyphosate oxido-reductase from LBAA oxidizes iminodiacetic acid (IDA) to glycine and glyoxylate.

[7] = Kinetic analysis of glyphosate oxidoreductase variants in crude E. coli lysates (glyoxylate-DNPH assay), substrate glyphosate; assay type: biochemical; settings: 25 mM glyphosate
Text: Using this PCR approach, glyphosate oxidoreductase genes from a number of sources have been isolated. The presence of the glyphosate oxidoreductase activity was confirmed by cloning the glyphosate oxidoreductase gene from chromosomal DNA prepared from Pseudomonas sp. strain LBr (Jacob et al., 1988) and using primers homologous to the N- and C-termini of the LBAA glyphosate oxidoreductase gene and containing the following suitable restriction cloning sites: 5′-[…]-3′ (SEQ ID NO:13) and 5′-[…]-3′ (SEQ ID NO:14). Cyclotherm parameters used for these PCR reactions is as follows: • Denature at 94° C. for 1 minute; • Anneal at 60° C. for 2 minutes; • Polymerize at 72° C. for 3 minutes, • 30 cycles, no autoextension, linked to 4° C. incubation. […]
A population of bacteria was isolated from a fixed-bed immobilized cell column, which employed Mannville R-635 diatomaceous earth beads, by plating on Tryptone Soy Agar (Difco), containing cylcoheximide at 100 ug/ml, and incubating at 28° C. […] The glyphosate oxidoreductase activity was assayed and the Km for glyphosate also determined:
The mutagenesis procedure used was that of Mn++-poisoned PCR and the template was a linearized glyphosate oxidoreductase gene plasmid containing the synthetic glyphosate oxidoreductase gene (SEQ ID NO:8). […] Growth rates were determined by measuring A550 over a 96 hour period. […]

Molecule: NCP(=O)(O)O [AMPA, aminomethylphosphonate]
- phytotoxicity (most plant species [1]): much less phytotoxic than glyphosate
- phytotoxicity (most plant species [2]): much less phytotoxic than glyphosate

Molecule: O=C(O)CNCP(=O)(O)O [Glyphosate, N-phosphonomethyl-glycine]
- Specific Activity [3]: 92 nmol/min/mg

Molecule: O=C(O)CNCC(=O)O [IDA, iminodiacetic acid]
- VmKm (IDA) [4]: 1.2
- app Vm (IDA) [4]: 0.6 U/mg
- Km ([4]; read-out: spp Km (IDA)): 500 µM
- Km ([5]; read-out: spp Km (IDA), pH 7.4, 30° C., crude E. coli lysate): 700 µM
- VmKm (IDA) [5]: 1.0
- app Vm (IDA) ([5]; pH 7.4, 30° C.): 0.7 U/mg

Molecule: O=C(O)CNCC(=O)O [Iminodiacetic acid, iminodiacetic acid]
- rate of the reaction [6]: significantly faster than with glyphosate
- Specific Activity [3]: 179 nmol/min/mg

B1: v.247: glyphosate oxidoreductase variant (SEQ ID NO:18); GLY84, ARG153, ARG334 (protein)
chain: MAENHKKVGIAGAGIVGVCTALMLQRRGFKVTLIDPNPPGEGASFGNAGCFNGSSVVPMSMPGNLTSVPKWLLDPMGPLSIRFGYFPTIMPWLIRFLLAGRPNKVKEQAKALRNLIKSTVPLIKSLAEEADASHLIRHEGHLTVYRGEADFARDRGGWELRRLNGVRTQILSADALRDFDPNLSHAFTKGILIEENGHTINPQGLVTLLFRRFIANGGEFVSARVIGFETEGRALKGITTTNGVLAVDAAVVAAGAHSKSLANSLGDDIPLDTERGYHIVIANPEAAPRIPTTDASGKFIATPMEMGLRVAGTVEFAGLTAAPNWKRAHVLYTRARKLLPALAPASSEERYSKWMGFRPSIPDSLPVIGRATRTPDVIYAFGHGHLGMTGAPMTATLVSELLAGEKTSIDISPFAPNRFGIGKSKQTGPAS
- fold higher specific activity for glyphosate oxidoreductase [7]: 3-4 fold
